{"source": "patent US9056099B2", "about": "“Compositions and methods for treating viral diseases” (NovaDrug, LLC, priority 2010, dated 2015)", "data": [{"system": "HCV (JFH-1) in Huh7-1 cells", "assay": "Assay for anti-HCV efficacy: JFH-1 HCV infection of Huh7-1 cultures, intracellular HCV RNA by RT-qPCR", "format": "cell-based, Hepatitis C virus", "details": "Compound Example 1 series; % viral titer at 5 μM or 15 μM; HCV-infected Huh7-1 cultures", "excerpt": "(§1) In the past, HCV studies involved mainly infected patients and chimpanzees. Recently, a robust HCV infection system was developed with cells derived from the Huh-7 human hepatoma cell line (see, for example, Yu et al., “Development of a cell-based hepatitis C virus infection fluorescent resonance energy transfer assay for high-throughput antiviral compound screening” Antimicrob Agents Chemother. 2009 53:4311-4319 for additional details regarding growing virus stocks, maintenance of the Huh-7 cells, infection parameters, and HCV titers determinations; and Yu & Uprichard “Cell-based hepatitis C virus infection fluorescence resonance energy transfer (FRET) assay for antiviral compound screening” Curr Protoc Microbiol. 2010; Chapter 17: Unit 17.5). Briefly, the assay is based on the unique JFH-1 HCV consensus cDNA derived from an HCV patient. Using reverse genetics, the infectious virus can be rescued from this HCV clone. The recovered viable JFH virus can be passaged serially in Huh-7 cells. For this reason, this system is amenable for testing the activity of potential drugs for their anti-HCV efficacy. The antiviral activity of the compounds described herein is tested in this system.\n(§2) Initially, 6×10^3 Huh7-1 cells are incubated overnight in each well of collagen-coated BioCoat 96-well plates (BD Biosciences, Bedford, Mass.) in 0.2 mL 10% Medium composed of Dulbecco's modified Eagle's medium supplemented with 10% fetal bovine serum. Subsequently, at 2 day intervals, the cultures are replenished with fresh 0.2 mL 10% Medium. Once the cultures become confluent, they are continually replenished at 2 day intervals with fresh 0.2 mL 10% Medium that also includes 1% dimethyl sulfoxide (DMSO). After 20 days of these replenishments, the Huh7-1 cultures are incubated with fresh 1% Medium (same as 10% Medium except that the serum level is 1%) containing HCV at a multiplicity of infection (MOI) of 0.05 focus forming units (ffu)/cell. The HCV (JFH-1wt Huh7) stock titer is 1.5×10^5 ffu/mL. The next day (day 1 post-infection) and 2 days later (day 3 post-infection) the media are replenished with fresh 1% Medium containing the test compounds dissolved in DMSO. On the 5th day of treatment with the compounds, cell lysates are collected for RNA isolation and Real Time-quantitative Reverse Transcription Polymerase Chain Reaction (RT-qPCR) and culture media are collected for cytotoxicity analysis.\n(§3) Total RNA is isolated from cells by the guanidine thiocyanate method using standard protocols. One μg RNA is used for cDNA synthesis using TaqMan reverse transcription reagents (Applied Biosystems, Foster City, Calif.) followed by real-time PCR using an Applied Biosystems 7300 real-time thermocycler. Illustrative thermal cycling consists of initial denaturation of 10 min at 95° C. followed by 40 cycles of denaturation (15 s at 95° C.) and annealing/extension (1 m at 60° C.). HCV and human glyceraldehyde-3-phosphate dehydrogenase (GAPDH) RNA levels are determined relative to a standard curve of serial dilutions of plasmid containing JFH-1 HCV or GAPDH cDNA. The PCR primers used to detect GAPDH and HCV are illustratively: GAPDH (NMX002046) 5′-GAAGGTGAAGGTCGGAGTC-3′ (SEQ ID NO: 5) (sense) and 5′-[…]-3′ (SEQ ID NO: 6) (anti-sense) JFH-1 HCV (AB047639) 5′-TCTGCGGAACCGGTGAGTA-3′ (SEQ ID NO: 7) (sense) and 5′-TCAGGCAGTACCACAAGGC-3′ (SEQ ID NO: 8) (anti-sense).\n(§4) FIGS. 1-7 illustrate the intracellular HCV RNA levels when cultures are incubated with the selected test compounds at the doses shown. When HCV RNA levels are compared among the samples, the data may indicate that the compounds cause a dose dependent decrease in HCV RNA levels relative to the mock-treated (no compound added) HCV infected control.", "values": [{"smiles": "COc1cccc(C2CN(C(=O)c3ccccc3)C3CCN(Cc4ccsc4)CC23)c1", "note": "(stereo not shown)", "Activity (viral titer)": "++ (≦60% viral titer at 5 μM)"}, {"smiles": "O=C(c1cccnc1)N1C[C@H](c2ccc(F)cc2)[C@H]2CN(Cc3ccncc3)CC[C@H]21", "Activity (viral titer)": "− (>60% viral titer at 15 μM (highest concentration tested))"}, {"smiles": "O=C(c1ccccc1)N1C[C@H](c2ccc(F)cc2)[C@H]2CN(Cc3ccc(F)cc3)CC[C@H]21", "Activity (viral titer)": "+++ (≦30% viral titer at 5 μM)"}, {"smiles": "COc1ccc([C@H]2CN(C(=O)c3ccccc3)[C@@H]3CCN(Cc4ccsc4)C[C@H]23)cc1", "Activity (viral titer)": "− (>60% viral titer at 15 μM (highest concentration tested))"}, {"smiles": "COc1cccc(CN2CCC3C(C2)C(c2ccc(F)cc2)CN3C(=O)c2ccccn2)c1", "note": "(stereo not shown)", "Activity (viral titer)": "− (>60% viral titer at 15 μM (highest concentration tested))"}, {"smiles": "O=C(c1cccnc1)N1C[C@H](c2ccc(F)cc2)[C@H]2CN(Cc3ccccc3)CC[C@H]21", "Activity (viral titer)": "++ (≦60% viral titer at 5 μM)"}, {"smiles": "O=C(c1ccc(F)cc1)N1C[C@H](c2ccsc2)[C@H]2CN(Cc3cccs3)CC[C@H]21", "Activity (viral titer)": "− (>60% viral titer at 15 μM (highest concentration tested))"}, {"smiles": "COc1ccc(C2CN(C(=O)c3ccccc3)C3CCN(Cc4ccccc4F)CC23)cc1", "note": "(stereo not shown)", "Activity (viral titer)": "++ (≦60% viral titer at 5 μM)"}, {"smiles": "Cc1ccc(CN2CC[C@@H]3[C@H](C2)[C@@H](c2ccsc2)CN3C(=O)c2ccccc2F)cc1", "Activity (viral titer)": "− (>60% viral titer at 15 μM (highest concentration tested))"}, {"smiles": "O=C(c1ccccn1)N1CC(c2ccc(F)cc2)C2CN(Cc3ccc(Cl)cc3)CCC21", "note": "(stereo not shown)", "Activity (viral titer)": "− (>60% viral titer at 15 μM (highest concentration tested))"}, {"smiles": "Cc1ccccc1CN1CC[C@@H]2[C@H](C1)[C@@H](c1ccc(F)cc1)CN2C(=O)c1cccs1", "Activity (viral titer)": "− (>60% viral titer at 15 μM (highest concentration tested))"}, {"smiles": "O=C(c1ccccc1F)N1C[C@H](c2ccsc2)[C@H]2CN(Cc3cccc(F)c3)CC[C@H]21", "Activity (viral titer)": "++ (≦60% viral titer at 5 μM)"}, {"smiles": "O=C(c1ccccc1F)N1C[C@H](c2ccsc2)[C@H]2CN(Cc3ccccn3)CC[C@H]21", "Activity (viral titer)": "− (>60% viral titer at 15 μM (highest concentration tested))"}, {"smiles": "COc1cccc(C2CN(C(=O)c3ccccc3)C3CCN(Cc4ccccn4)CC23)c1", "note": "(stereo not shown)", "Activity (viral titer)": "− (>60% viral titer at 15 μM (highest concentration tested))"}, {"smiles": "O=C(c1cccs1)N1CC(c2ccc(F)cc2)C2CN(Cc3ccccc3F)CCC21", "note": "(stereo not shown)", "Activity (viral titer)": "+ (≦60% viral titer at 15 μM)"}, {"smiles": "O=C(c1ccccc1F)N1CC(c2ccsc2)C2CN(Cc3ccncc3)CCC21", "note": "(stereo not shown)", "Activity (viral titer)": "− (>60% viral titer at 15 μM (highest concentration tested))"}, {"smiles": "COc1cccc([C@H]2CN(C(=O)c3ccccc3)[C@@H]3CCN(Cc4ccccc4)C[C@H]23)c1", "Activity (viral titer)": "− (>60% viral titer at 15 μM (highest concentration tested))"}, {"smiles": "O=C(c1ccccc1F)N1CC(c2ccsc2)C2CN(Cc3ccccc3F)CCC21", "note": "(stereo not shown)", "Activity (viral titer)": "− (>60% viral titer at 15 μM (highest concentration tested))"}]}, {"system": "HCV (JFH-1) in Huh7-1 cells", "assay": "Assay for anti-HCV efficacy: JFH-1 HCV infection of Huh7-1 cultures, intracellular HCV RNA by RT-qPCR", "format": "cell-based, Hepatitis C virus", "details": "Compound Example 2 series; % viral titer at 5 μM or 15 μM; HCV-infected Huh7-1 cultures", "excerpt": "as §1, §2, §3, §4", "values": [{"smiles": "O=C(c1ccccc1)N1C[C@@H](c2ccsc2)[C@@H]2CN(Cc3cccc(F)c3)CC[C@@H]21", "Activity (viral titer)": "− (>60% viral titer at 15 μM (highest concentration tested))"}, {"smiles": "O=C(c1ccncc1)N1CC(c2ccsc2)C2CN(Cc3ccc(F)cc3)CCC21", "note": "(stereo not shown)", "Activity (viral titer)": "+ (≦60% viral titer at 15 μM)"}, {"smiles": "Cc1ccc(CN2CCC3C(C2)C(c2ccsc2)CN3C(=O)c2ccncc2)cc1", "note": "(stereo not shown)", "Activity (viral titer)": "− (>60% viral titer at 15 μM (highest concentration tested))"}, {"smiles": "COc1ccc(C2CN(C(=O)c3ccccc3)C3CCN(Cc4ccc(F)cc4)CC23)cc1", "note": "(stereo not shown)", "Activity (viral titer)": "+++ (≦30% viral titer at 5 μM)"}, {"smiles": "O=C(c1ccccc1)N1CC(c2ccsc2)C2CN(Cc3ccc(F)c(F)c3)CCC21", "note": "(stereo not shown)", "Activity (viral titer)": "++ (≦60% viral titer at 5 μM)"}, {"smiles": "O=C(c1ccc(F)cc1)N1CC(c2ccsc2)C2CN(Cc3ccccn3)CCC21", "note": "(stereo not shown)", "Activity (viral titer)": "− (>60% viral titer at 15 μM (highest concentration tested))"}, {"smiles": "Cc1ccccc1CN1CCC2C(C1)C(c1ccc(F)cc1)CN2C(=O)c1ccncc1", "note": "(stereo not shown)", "Activity (viral titer)": "− (>60% viral titer at 15 μM (highest concentration tested))"}, {"smiles": "Cc1ccc(CN2CCC3C(C2)C(c2ccsc2)CN3C(=O)c2ccc(F)cc2)cc1", "note": "(stereo not shown)", "Activity (viral titer)": "− (>60% viral titer at 15 μM (highest concentration tested))"}, {"smiles": "CC(C)c1ccc(CN2CC[C@H]3[C@@H](C2)[C@H](c2ccsc2)CN3C(=O)c2ccncc2)cc1", "Activity (viral titer)": "− (>60% viral titer at 15 μM (highest concentration tested))"}, {"smiles": "Cc1ccccc1CN1CC[C@H]2[C@@H](C1)[C@H](c1ccsc1)CN2C(=O)c1ccncc1", "Activity (viral titer)": "− (>60% viral titer at 15 μM (highest concentration tested))"}, {"smiles": "COc1ccc(CN2CC[C@H]3[C@@H](C2)[C@H](c2ccsc2)CN3C(=O)c2ccncc2)cc1", "Activity (viral titer)": "− (>60% viral titer at 15 μM (highest concentration tested))"}, {"smiles": "O=C(c1cccnc1)N1CC(c2ccc(F)cc2)C2CN(Cc3cccc(F)c3)CCC21", "note": "(stereo not shown)", "Activity (viral titer)": "− (>60% viral titer at 15 μM (highest concentration tested))"}, {"smiles": "O=C(c1ccccc1)N1C[C@@H](c2ccsc2)[C@@H]2CN(Cc3ccc(Cl)cc3)CC[C@@H]21", "Activity (viral titer)": "++ (≦60% viral titer at 5 μM)"}, {"smiles": "O=C(c1ccncc1)N1CC(c2ccc(F)cc2)C2CN(Cc3ccccc3F)CCC21", "note": "(stereo not shown)", "Activity (viral titer)": "− (>60% viral titer at 15 μM (highest concentration tested))"}, {"smiles": "O=C(c1ccncc1)N1CC(c2ccsc2)C2CN(Cc3ccccc3)CCC21", "note": "(stereo not shown)", "Activity (viral titer)": "− (>60% viral titer at 15 μM (highest concentration tested))"}, {"smiles": "COc1ccccc1CN1CC[C@H]2[C@@H](C1)[C@H](c1ccsc1)CN2C(=O)c1ccccc1", "Activity (viral titer)": "− (>60% viral titer at 15 μM (highest concentration tested))"}]}]}
